Source: patent publication US12024510B2, “Pyrazolopyridine-diamides, their use as insecticide and processes for preparing the same” (PI INDUSTRIES LTD., priority 2017, dated 2024)

What was measured:
Assay type in all cases: in vivo
Spodoptera litura = Spodoptera litura diet incorporation method; details: third instar larvae, dead and moribund combined, 96 h after release
Procedure, shortened: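 Compound milled to <2 μm average particle size in surfactant, dispersed in water (500 ppm stock dispersion), then mixed into semi-synthetic diet at ~50° C. One starved third-instar larva per diet cell, 25° C, 70% RH; percent mortality (dead plus moribund) scored at 96 h.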

Plutella xylostella = assay: whole plant or invertebrate; details: foliar, cabbage leaf dip, second instar larvae, dead and moribund combined, 72 h after release
Procedure, shortened: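 Compounds milled with zirconia beads into surfactant dispersion (500 ppm stock), diluted in 0.01% Triton-X. Cabbage leaves dipped 10 s, shade-dried 20 min; one second-instar larva per cell, 25 °C, 70% RH. Mortality (dead plus moribund) scored at 72 h.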

Helicoverpa armigera = Helicoverpa armigera diet incorporation method; details: third instar larvae, dead and moribund combined, 96 h after release
Procedure, shortened: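 500 ppm stock of compound milled with surfactant and zirconia beads to average particle size below 2 μm, dispersed in DM water, diluted as needed, and mixed into semi-synthetic diet at about 50° C. Single starved third-instar larvae per cell, held at 25° C., 70% RH; dead plus moribund larvae scored as percent mortality at 96 h.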

Measured: mortality at 300 ppm

CSCCNC(=O)c1c(NC(=O)c2cc(Br)nn2-c2ncccc2Cl)c(C)cc2ccnn12 [Compound 37, 6-(3-bromo-1-(3-chloropyridin-2-yl)-1H-pyrazole-5-carboxamido)-5-methyl-N-(2-(methylthio)ethyl)pyrazolo[1,5-a]pyridine-7-carboxamide]
> 70%: all assays above

Cc1cc2ccnn2c(C(=O)NCC2CC2)c1NC(=O)c1cc(OCC(F)(F)F)nn1-c1ncccc1Cl [Compound 14, 6-(1-(3-chloropyridin-2-yl)-3-(2,2,2-trifluoroethoxy)-1H-pyrazole-5-carboxamido)-N-(cyclopropylmethyl)-5-methylpyrazolo[1,5-a]pyridine-7-carboxamide]
> 70%: all assays above

CCCNC(=O)c1c(NC(=O)c2cc(Br)nn2-c2ncccc2Cl)c(C)cc2ccnn12 [Compound 21, 6-(3-bromo-1-(3-chloropyridin-2-yl)-1H-pyrazole-5-carboxamido)-5-methyl-N-propylpyrazolo[1,5-a]pyridine-7-carboxamide]
> 70%: all assays above

Cc1cc2ccnn2c(C(=O)NC(C)C(F)(F)F)c1NC(=O)c1cc(Br)nn1-c1ncccc1Cl (stereo not drawn) [Compound 187, 6-(3-bromo-1-(3-chloropyridin-2-yl)-1H-pyrazole-5-carboxamido)-5-methyl-N-(1,1,1-trifluoropropan-2-yl)pyrazolo[1,5-a]pyridine-7-carboxamide]
> 70%: all assays above

Cc1cc2ccnn2c(C(=O)NC(C)C2CC2)c1NC(=O)c1cc(C(F)(F)F)nn1-c1ncccc1Cl (stereo not drawn) [Compound 126, 6-(1-(3-chloropyridin-2-yl)-3-(trifluoromethyl)-1H-pyrazole-5-carboxamido)-N-(1-cyclopropylethyl)-5-methylpyrazolo[1,5-a]pyridine-7-carboxamide]
> 70%: all assays above

CC(C)(C)NC(=O)c1c(NC(=O)c2cc(Br)nn2-c2ncccc2Cl)c(Br)cc2ccnn12 [Compound 53, 5-bromo-6-(3-bromo-1-(3-chloropyridin-2-yl)-1H-pyrazole-5-carboxamido)-N-(tert-butyl)pyrazolo[1,5-a]pyridine-7-carboxamide]
> 70%: all assays above

COCCNC(=O)c1c(NC(=O)c2cc(Br)nn2-c2ncccc2Cl)c(C)cc2ccnn12 [Compound 7, 6-(3-bromo-1-(3-chloropyridin-2-yl)-1H-pyrazole-5-carboxamido)-N-(2-methoxyethyl)-5-methylpyrazolo[1,5-a]pyridine-7-carboxamide]
> 70%: all assays above

CNC(=O)c1c(NC(=O)c2cc(Br)nn2-c2ncccc2Cl)c(Cl)cc2ccnn12 [Compound 148, 6-(3-bromo-1-(3-chloropyridin-2-yl)-1H-pyrazole-5-carboxamido)-5-chloro-N-methylpyrazolo[1,5-a]pyridine-7-carboxamide]
> 70%: all assays above

COc1cc(C(=O)Nc2c(C)cc3ccnn3c2C(=O)NC2CC2)n(-c2ncccc2Cl)n1 [Compound 26, 6-(1-(3-chloropyridin-2-yl)-3-methoxy-1H-pyrazole-5-carboxamido)-N-cyclopropyl-5-methylpyrazolo[1,5-a]pyridine-7-carboxamide]
> 70%: all assays above

Cc1cc2ccnn2c(C(=O)NCC2CC2)c1NC(=O)c1cc(OC2CSC2)nn1-c1ncccc1Cl [Compound 72, 6-(1-(3-chloropyridin-2-yl)-3-(thietan-3-yloxy)-1H-pyrazole-5-carboxamido)-N-(cyclopropylmethyl)-5-methylpyrazolo[1,5-a]pyridine-7-carboxamide]
> 70%: all assays above

Cc1cc2ccnn2c(C(=O)NC(C)(C)C)c1NC(=O)c1cc(C(F)(F)F)nn1-c1ncccc1Cl [Compound 58, N-(tert-butyl)-6-(1-(3-chloropyridin-2-yl)-3-(trifluoromethyl)-1H-pyrazole-5-carboxamido)-5-methylpyrazolo[1,5-a]pyridine-7-carboxamide]
> 70%: all assays above

Cc1cc2ccnn2c(C(=O)NCC(F)F)c1NC(=O)c1cc(Br)nn1-c1ncccc1Cl [Compound 186, 6-(3-bromo-1-(3-chloropyridin-2-yl)-1H-pyrazole-5-carboxamido)-N-(2,2-difluoroethyl)-5-methylpyrazolo[1,5-a]pyridine-7-carboxamide]
> 70%: all assays above

CCNC(=O)c1c(NC(=O)c2cc(Cn3nnc(C(F)(F)F)n3)nn2-c2ncccc2Cl)c(Cl)cc2ccnn12 [Compound 154, 5-chloro-6-(1-(3-chloropyridin-2-yl)-3-((5-(trifluoromethyl)-2H-tetrazol-2-yl)methyl)-1H-pyrazole-5-carboxamido)-N-ethylpyrazolo[1,5-a]pyridine-7-carboxamide]
> 70%: all assays above

COc1cc(C(=O)Nc2c(Br)cc3ccnn3c2C(=O)NC(C)C(F)(F)F)n(-c2ncccc2Cl)n1 (stereo not drawn) [Compound 226, 5-bromo-6-(1-(3-chloropyridin-2-yl)-3-methoxy-1H-pyrazole-5-carboxamido)-N-(1,1,1-trifluoropropan-2-yl)pyrazolo[1,5-a]pyridine-7-carboxamide]
> 70%: all assays above

CONC(=O)c1c(NC(=O)c2cc(OC)nn2-c2ncccc2Cl)c(C)cc2ccnn12 [Compound 42, 6-(1-(3-chloropyridin-2-yl)-3-methoxy-1H-pyrazole-5-carboxamido)-N-methoxy-5-methylpyrazolo[1,5-a]pyridine-7-carboxamide]
> 70%: all assays above

C#CCNC(=O)c1c(NC(=O)c2cc(C(F)(F)F)nn2-c2ncccc2Cl)c(C)cc2ccnn12 [Compound 108, 6-(1-(3-chloropyridin-2-yl)-3-(trifluoromethyl)-1H-pyrazole-5-carboxamido)-5-methyl-N-(prop-2-yn-1-yl)pyrazolo[1,5-a]pyridine-7-carboxamide]
> 70%: all assays above
